Experimental data published in BindingDB's records for patent US9192603 (Vanderbilt University, 2015).

Target: Metabotropic glutamate receptor 4 (Homo sapiens, UniProt Q14833)
Assay: Receptor Activity Assay
Procedure: The disclosed compounds and compositions can be evaluated for their ability to act as a potentiator of metabotropic glutamate receptor activity, in particular mGluR4 activity, by any suitable known methodology known in the art. For example, Chinese Hamster Ovary (CHO) cells transfected with human mGluR4 or HEK cells co-transfected with rat mGluR4 and the G-protein regulated Inwardly Rectifying Potassium channel (GIRK) were plated in clear bottom assay plates for assay in a Hamamatsu FDSS Fluorometric Plate Reader. The cells were loaded with either a Ca2+-sensitive fluorescent dye or the thallium responsive dye and the plates were washed and placed into a suitable kinetic plate reader. For human mGluR4 assays, a fluorescence baseline was established for 3-5 seconds, the disclosed compounds were then added to the cells, and the response in cells was measured.

Sequence of Metabotropic glutamate receptor 4 (Q14833 whole entry): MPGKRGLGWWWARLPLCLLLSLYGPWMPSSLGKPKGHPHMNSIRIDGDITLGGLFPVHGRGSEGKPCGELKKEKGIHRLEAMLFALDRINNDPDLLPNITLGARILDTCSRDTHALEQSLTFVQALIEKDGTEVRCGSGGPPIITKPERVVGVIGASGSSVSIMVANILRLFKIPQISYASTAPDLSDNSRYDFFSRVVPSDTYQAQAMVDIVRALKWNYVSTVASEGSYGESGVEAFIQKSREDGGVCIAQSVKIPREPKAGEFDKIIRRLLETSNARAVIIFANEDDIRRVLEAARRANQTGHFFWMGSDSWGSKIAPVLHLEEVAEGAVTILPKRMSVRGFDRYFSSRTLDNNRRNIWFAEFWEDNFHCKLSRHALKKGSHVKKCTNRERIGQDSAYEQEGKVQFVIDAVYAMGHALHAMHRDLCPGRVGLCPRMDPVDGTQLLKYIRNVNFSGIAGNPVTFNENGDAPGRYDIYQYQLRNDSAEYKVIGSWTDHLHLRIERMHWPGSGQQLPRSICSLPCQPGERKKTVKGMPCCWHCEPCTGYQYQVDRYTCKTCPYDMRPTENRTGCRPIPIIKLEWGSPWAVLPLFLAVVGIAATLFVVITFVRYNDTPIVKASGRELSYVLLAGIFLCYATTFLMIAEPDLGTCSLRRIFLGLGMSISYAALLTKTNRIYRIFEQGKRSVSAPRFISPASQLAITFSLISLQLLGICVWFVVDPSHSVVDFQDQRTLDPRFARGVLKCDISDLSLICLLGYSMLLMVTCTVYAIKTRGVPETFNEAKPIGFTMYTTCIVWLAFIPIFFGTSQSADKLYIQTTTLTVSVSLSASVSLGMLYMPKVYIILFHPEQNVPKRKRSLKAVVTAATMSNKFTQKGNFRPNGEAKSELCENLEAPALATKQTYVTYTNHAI

## CC(C)c1nc(NC(=O)c2ccccn2)sc1S(=O)(=O)Cc1ccc(F)cc1F [US9192603, 65]
  EC50: > 10 µM
